Experimental data as given in EP3483233A1, “LUBRICANT BASE OIL COMPOSITIONS OF MONO-UNSATURATED DIBASIC ACID ESTERS WITH BRANCHED ALCOHOLS” (ARKEMA FRANCE, priority 2017, dated 2019).
Where “and” joins values, the source holds several entries; their conditions need not be identical. Identical values can stand only once.

How the values were obtained:
Assay type in all cases: physicochemical
[1] = Pour point and cloud point, cooling regime of ASTM D97; conditions: for Cloud point, °C: visual inspection during the same run; for low temperature fluidity: result in words
Method: Pour points and cloud points were determined using the same thermal cooling regime, as instructed by ASTM D97. The sample sizes were 5 to 15 mL during the measurements.
Cloud points were determined during the same run by visual inspection of the sample appearance at low temperature. The samples were removed from the freezer every 3°C for visual inspection and, if cloudy, meniscus movement with inversion. The pour point resembled the last measurement, at which the meniscus boundary was still moving within 5 seconds of horizontal inversion. All samples were tested in duplicate.
In engine oils and hydraulic fluids, low temperature fluidity is primarily determined by pour points [ASTM D97]. Generally, pour points below -30°C are considered sufficient. Some polymer additives, e.g. "Pour Point Depressants" (PPD), are able to improve low temperature fluidity. […] Therefore, initially pour points and cloud points [ASTM D2500 "Standard Test Method for Cloud Point of Petroleum Products and Liquid Fuels"] of α-ω dibasic esters were evaluated and shown in Table 4.

[2] = Thin film test, volatile losses (500 µm oil film on steel coupon, forced-draft oven, gravimetric); conditions: for Volatile emissions, 16 hrs / Volatile emissions, 36 hrs: 500 µm thick films at 120°C
Source text: (§1) The exact procedure, used here, has been described in detail by Stoncius, A. et al. in "Volatiles from Thin Film Degradation of Bio-based, Synthetic and Mineral Basestocks", published in Industrial Lubrication & Tribology, 2013, 65 (3) 209-215, 2013, Emerald Group Publishing Edition or by Brazinskiene, D. et al. in "Ester Basestock Vaporisation from Thin Oil Films", published in Lubrication Science, DOI: 10.1002/ls.1372, pp 1-17, 2017, Wiley Edition.
(§2) Briefly, an oil film of 500 µm thickness was coated on steel coupon and heated at given temperature for specific duration in a forced-draft oven. Afterwards, the volatile losses and insoluble residues were measured gravimetrically.
As discussed in the prior-art review, volatility can be successfully evaluated in a thin film test as described by Stoncius, A. et al. in "Volatiles from Thin Film Degradation of Bio-based, Synthetic and Mineral Basestocks" published in Industrial Lubrication & Tribology, 2013, 65 (3) 209-215, Emerald Group Publishing Edition or by Brazinskiene, D. et al. in "Ester Basestock Vaporisation from Thin Oil Films" published in Lubrication Science, DOI: 10.1002/ls.1372, pp 1-17, 2017, Wiley Edition. This thin-film method is much better suited for hydraulic fluid applications than NOACK or other tests, which employ 250°C or similar temperatures, related to engine oil applications. Also, the above method accounts for longer term decomposition reactions due to exposure to metal surfaces and oxidation, which is prevalent in hydraulic applications. Therefore, using the thin-film method short-term vapor losses were measured after 16 hrs and decomposition trends were compared after 36 hrs of testing. Heating temperature of 120°C was selected to compare thin films of α,ω dibasic esters with commercial basestocks. Table 5. Volatile emissions, % w/w from 500 µm thick films of α-ω dibasic esters and commercial basestocks at 120°C

[3] = Thin film test, oxidative stability (time to insoluble residues and to solidification); conditions: 500 µm thick films at 120°C; for Vapor loss at solidification: at the duration of full film solidification
Source text: as §1, §2
Therefore, thin films of commercial basestocks and α-ω dibasic esters were compared by exposing their thin films to 120°C as described by Stoncius, A. et al. in "Volatiles from Thin Film Degradation of Bio-based, Synthetic and Mineral Basestocks" published in Industrial Lubrication & Tribology, 2013, 65 (3), 209-215, Emerald Group Publishing Edition or by Brazinskiene, D. et al. in "Ester Basestock Vaporisation from Thin Oil Films" published in Lubrication Science, DOI: 10.1002/ls.1372, pp 1-17, 2017, Wiley Edition.
The thin-film method determines how resistant oil is against formation of insoluble residues during oxidation. Degradation durations until initial formation of solid residues and complete solidification directly relate to oxidative stability.

[4] = Kinematic viscosity with capillary Cannon-Fenske viscometers; Viscosity Index calculated per ASTM D2270; conditions: for Viscosity Index: calculated per ASTM D2270 from viscosities at 40°C and 100°C; for Viscosity, mm^2/s at 40°C: kinematic viscosity at 40°C; for Viscosity, mm^2/s at 100°C: kinematic viscosity at 100°C
Method: Kinematic viscosities at 40°C and 100°C were measured using capillary Cannon-Fenske viscometers per ASTM […]. Viscosity Index (the value, describing the rate of thinning with increasing temperature) was calculated per ASTM D2270.

[5] = Solubility of lubricant additives in the basestocks
Method: Several typical lubricant additives have been tested for solubility in α-ω dibasic esters of 2-ethyl hexanol 26U18 and 26S12 as well as commercial basestock 350N. The additives were mixed in at temperatures of 50°C or lower and held for longer than a week at room temperature. Table 7. Solubility of lubricant additives, dissolved in α-ω dibasic esters and commercial basestocks
The additives were selected to represent different chemical categories: soaps, heterocycles, phosphorous derivatives, polymers, etc. Most of these additives are designed to be dissolved in paraffinic mineral oils and synthetic lubricants with some heating. It is often thought that esters are better solvents than mineral oils or synthetic hydrocarbons like poly α-olefins. Therefore, the tested concentrations were much higher than additive proportions for hydraulic fluids, as recommended by the additive manufacturers.

Pour point, °C [1] | Cloud point, °C [1] | Volatile emissions, 16 hrs [2] [% w/w] | Volatile emissions, 36 hrs [2] [% w/w] | Full solidification observed [3] [h] | Initial residues observed [3] [h] | Vapor loss at solidification [3] [% w/w] | Viscosity Index [4] | Viscosity, mm^2/s at 40°C [4] | Viscosity, mm^2/s at 100°C [4] [mm^2/s] | Solubility of 1% w/w Vanlube 7723 ([5]; Alkyl dithiocarbamate, mixed in at 50°C or lower, held longer than a week at room temperature) | Solubility of 1% w/w Irgalube ML605A ([5]; Amine and phosphate derivatives, mixed in at 50°C or lower, held longer than a week at room temperature) | Solubility of 1% w/w Vanlube 7611 M ([5]; Phosphoro dithioate, mixed in at 50°C or lower, held longer than a week at room temperature) | Solubility of 5% w/w Viscoplex 10-310 ([5]; Poly alkyl methacrylate, mixed in at 50°C or lower, held longer than a week at room temperature) | Solubility of 2% w/w Vanlube RI- A ([5]; Soap and ester derivatives, mixed in at 50°C or lower, held longer than a week at room temperature) | Solubility of 1% w/w Cobratec TT-100 ([5]; Tolyl triazole, mixed in at 50°C or lower, held longer than a week at room temperature) | Initial solution appearance ([5]; all tested additives blended in, unchanged after 1 week at room temperature) | volatility ([2]; result in words, thin films at 120°C) | Molecule | low temperature fluidity [1]
-21 °C | -18 °C | 0.87 | 7 | 463 | 343 | 63 | 205 | 21.2 mm^2/s | 5.35 |  |  |  |  |  |  |  |  | 1,18-di(1-methylheptyl) octadec-9-enedioate [17U18] | much poorer low temperature fluidity
-54 °C | -48 °C | 1.7 | 9.8 | 320 | 248 | 47 | 163 | 36.09 mm^2/s | 7.09 |  |  |  |  |  |  |  |  | 1,18-di(2-butyloctyl) octadec-9-enedioate [48U18] | 
+9 °C | +9 °C |  |  |  |  |  | 180 | 22.7 mm^2/s | 5.31 |  |  |  |  |  |  |  |  | CCCCCCC(C)OC(=O)CCCCCCCCCCCCCCCCC(=O)OC(C)CCCCCC (stereo not shown) [17S18, 1,18-di(1-methylheptyl) octadecanedioate, reference compound] | very problematic low temperature fluidity
-9 °C | -9 °C |  |  |  |  |  | 194 | 23.9 mm^2/s | 5.71 |  |  |  |  |  |  |  |  | CCCCC(CC)COC(=O)CCCCCCCCCCCCCCCCC(=O)OCC(CC)CCCC (stereo not shown) [26S18, 1,18-di(2-ethylhexyl) octadecanedioate, reference compound] | very problematic low temperature fluidity
-51 °C | -51 °C | 3.8 | 10.1 | 325 | 248 | 57 | 205 | 28.97 mm^2/s | 6.78 |  |  |  |  |  |  |  |  | CCCCCCC(CCCC)COC(=O)CCCCCCCC=CCCCCCCCC(=O)OCC(CC)CCCC (stereo not shown) [4826U18, 1-(2-butyloctyl)-18-(2-ethylhexyl)octadec-9-enedioate] | 

Further lines, the molecule ahead of its results:

Molecule | Pour point, °C [1] | Cloud point, °C [1] | Volatile emissions, 16 hrs [2] [% w/w] | Volatile emissions, 36 hrs [2] [% w/w] | Full solidification observed [3] [h] | Initial residues observed [3] [h] | Vapor loss at solidification [3] [% w/w] | Viscosity Index [4] | Viscosity, mm^2/s at 40°C [4] | Viscosity, mm^2/s at 100°C [4] [mm^2/s] | Solubility of 1% w/w Vanlube 7723 ([5]; Alkyl dithiocarbamate, mixed in at 50°C or lower, held longer than a week at room temperature) | Solubility of 1% w/w Irgalube ML605A ([5]; Amine and phosphate derivatives, mixed in at 50°C or lower, held longer than a week at room temperature) | Solubility of 1% w/w Vanlube 7611 M ([5]; Phosphoro dithioate, mixed in at 50°C or lower, held longer than a week at room temperature) | Solubility of 5% w/w Viscoplex 10-310 ([5]; Poly alkyl methacrylate, mixed in at 50°C or lower, held longer than a week at room temperature) | Solubility of 2% w/w Vanlube RI- A ([5]; Soap and ester derivatives, mixed in at 50°C or lower, held longer than a week at room temperature) | Solubility of 1% w/w Cobratec TT-100 ([5]; Tolyl triazole, mixed in at 50°C or lower, held longer than a week at room temperature) | Initial solution appearance ([5]; all tested additives blended in, unchanged after 1 week at room temperature) | volatility ([2]; result in words, thin films at 120°C) | low temperature fluidity [1]
1,9-di(2-ethylhexyl) nonanedioate [26S9, reference compound] | -57 °C | -38 °C | 2.65 | 4.7 | 553 | 367 | 92 | 111 | 10.5 mm^2/s | 2.8 |  |  |  |  |  |  |  |  | 
1,12-di(2-ethylhexyl) dodecanedioate [26S12, reference compound] | -48 °C | -30 °C | 0.8 | 1.75 | 655 | 583 | 86 | 147 | 14.72 mm^2/s | 3.72 | soluble | soluble | soluble | soluble | soluble | soluble | bright and clear | much lower volatility | 
1,18-di(2-propylheptyl) octadec-9-enedioate [37U18] | -51 °C | -51 °C | 3.5 | 10.6 | 324 | 248 | 54 | 174 | 28.7 mm^2/s and 28.74 mm^2/s | 6.39 |  |  |  |  |  |  |  |  | 
1,18-di(3,3,5-trimethylhexyl) octadec-9-enedioate [9U18] | -33 °C | -33 °C | 5 | 13.9 | 367 | 344 | 71 | 202 | 28.8 mm^2/s | 6.7 |  |  |  |  |  |  |  |  | 
1,18-di(3-methylbutyl) octadec-9-enedioate [5U18] | -24 °C | -24 °C | 12.6 | 23.7 | 225 | 152 | 66 | 196 | 12.93 mm^2/s | 3.73 |  |  |  |  |  |  |  |  | 
1,18-dimethyl octadec-9-enedioate [1U18] | > +15 °C | > +15 °C | 9.4 | 25.6 | 344 | 248 |  | 204 | 8.68 mm^2/s | 2.85 |  |  |  |  |  |  |  |  | much poorer low temperature fluidity
1-(3,7,11,15-tetra methyl-2-hexadecenyl) - 18-(2-ethylhexyl) octadec-9-enedioate [2026U18] | -66 °C | -63 °C | 6.7 | 13.4 | 176 | 152 | 39 | 175 | 42.54 mm^2/s | 8.3 |  |  |  |  |  |  |  |  | 
